US9663495B2 (YUHAN CORPORATION, priority 2013, dated 2017)

Assays:
GPR119 [1] = target: T1, GPR119 (Homo sapiens, UniProt Q8TDV5); assay: cAMP Accumulation Assay (GPR119 CRE-bla CHO-K1 cells, LiveBLAzer-FRET B/G); type: cell-based; conditions: (Emax of the test compound/Emax of MBX-2982)x100, 5 hours incubation
T1 construct: host or cells: CHO-K1 (GPR119 CRE-bla, doxycycline-induced)
T1 sequence (Q8TDV5 1-335): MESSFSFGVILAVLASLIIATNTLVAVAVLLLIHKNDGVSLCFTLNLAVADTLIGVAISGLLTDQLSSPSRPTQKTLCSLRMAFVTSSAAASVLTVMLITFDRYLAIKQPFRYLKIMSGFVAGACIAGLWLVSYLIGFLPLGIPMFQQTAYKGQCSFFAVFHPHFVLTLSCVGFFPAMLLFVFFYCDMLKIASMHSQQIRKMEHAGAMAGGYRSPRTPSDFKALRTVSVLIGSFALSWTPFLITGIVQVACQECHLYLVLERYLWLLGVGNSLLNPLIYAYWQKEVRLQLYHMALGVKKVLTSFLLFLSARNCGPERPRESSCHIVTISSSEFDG

GPR119 [2] = target: T1, GPR119; assay: as above; type: cell-based; conditions: for EC50: 5 hours incubation; for Emax (Fold): maximum activity, response ratio versus non-treated control group
Experimental: 32 μl of an assay medium (DMEM supplemented with GlutaMax™ 99%, dialyzed FBS 1%, non-essential amino acid 1 mM, HEPES 25 mM, penicillin 100 U/ml, and streptomycin 100 μg/ml) was added to each well of a 384 black well plate and then the GPR119 CRE-bla CHO-K1 cells (Invitrogen) were seeded in 1×10^4 cells per well. Doxycycline was dissolved in the assay medium in the concentration of 1 μg/ml. The resulting solution (4 μl) was added to each well, which was then incubated in a 5% CO 2 incubator at 37° C. for about 20 to 24 hours. Each test compounds were diluted with the assay medium to prepare 10 samples, which have concentrations ranging from […], respectively. Each samples (8 μl) was added to each well, which was then incubated in a 5% CO2 incubator at 37° C. for 5 hours. In case of the control group, the well was treated with a solution (8 μl) prepared by diluting dimethyl sulfoxide (DMSO) in the assay medium to 1%. The substrate mixture (8 μl) was added to each well, which was then left under darkness at room temperature for 2 hours. The substrate mixture contains the followings: 1 mM LiveBLAzer™-FRET B/G(CCF4-AM) substrate 6 μl, solution B 60 μl, solution C 904 μl, and solution D 30 μl.
Fluorescence intensity was determined under the wavelength conditions of 400 nm/465 nm (excitation/emission) for the blue channel and 400 nm/535 nm (excitation/emission) for the green channel, with the fluorescence microplate reader (SpectraFluor Plus. TECAN). The net activity of each well was calculated by subtracting the average value of the cell-free control group from the value of the unstimulated (i.e., non-treated) control group or the stimulated (i.e., test compound-treated) group at each wavelength. MBX-2982 (Metabolex) was used as a control drug. The response ratio was calculated by dividing the net signal ratio (465 nm/535 nm) of the control drug or the test compound by the net signal ratio (465 nm/535 nm) of the non-treated control group. The relative ratio (R.R) was calculated by dividing the maximum activity [Emax (fold)] of the test compound (i.e., % activity in comparison with the background) by the maximum activity [Emax (fold)] of the control drug (MBX-2982) [Emax (% RR)=(Emax of the test compound/Emax of MBX-2982)×100]. EC50 (half maximal effective concentration) was calculated using the software for statistical analysis “Prism 5.0 (GraphPad)”, based on the values obtained according to concentrations of the test compounds.

male C57BL/6 mice = assay: Oral Glucose Tolerance Test (OGTT); type: in vivo; set-up: concentration or dose not given beside the values; conditions: fasted male C57BL/6 mice, oral administration 30 minutes before oral glucose; AUCglucose 0-120 minutes versus negative control group
Experimental: The oral glucose tolerance test of the compounds according to the present invention was carried out according to the procedures disclosed in Andrikopoulos S, Blair A R, Deluca N, Fam B C, Proietto J, Am J Physiol Endocrinol Metab. 2008, Vol 295, E1323-1332. Briefly, male C57BL/6 mice at 8 to 9 weeks of age having 20 g to 25 g of body weight (Orient Bio Inc. Korea) were allowed to acclimatize to the surroundings (temperature: 20±2° C., humidity: 40-60%, light/dark cycle: 12 hours) for 1 week. During the acclimatization, the mice were given ad libitum access to feed and water. The mice were fasted from 18 hours before the test, except for allowing free access to water. After measuring the mice′ body weights and blood sugar levels, they were divided into test groups so as to have similar blood sugar levels. The mice were orally administered with a mixture of test compound and the diluent (0.5% solution of MC1500 (Sigma)). At 30 minutes after the administration, the mice were also orally administered with 20% glucose solution in an amount of 0.1 ml per 10 g of body weight. The blood samples were taken from the tail vain at 0 (right before the administration of the glucose solution), 15, 30, 60, 90, and 120 minutes after the administration of the glucose solution; and the blood sugar levels thereof were measured with a blood glucose test meter (GlucoDr. AGM-3000, All Medicus Co. Ltd.). The graph for blood sugar level on time for each test compound was plotted from the respective blood sugar values; and then area under the curve (AUCglucose) was determined. The inhibition rate of blood sugar (%) was calculated from the following formula. Inhibition rate of blood sugar (%)=[(AUCglucose of the negative control group−AUCglucose of the test group)/AUCglucose of the negative control group]×100

SMILES	Emax (% RR) (GPR119 [1])	EC50 (GPR119 [2]) [nM]	Emax (Fold) (GPR119 [2])	Inhibition rate of blood sugar (%) (male C57BL/6 mice)
CCc1cnc(N2CCN(c3ncc(-c4ccc(-n5cnn([C@@H]6CCOC6)c5=O)cc4)cc3C#N)CC2)nc1 [Example 41, (R)-2-(4-(5-ethylpyrimidin-2-yl)piperazin-1-yl)-5-(4-(5-oxo-1-(tetrahydrofuran-3-yl)-1H-1,2,4-triazol-4(5H)-yl)phenyl)nicotinonitrile]	113.4	5	3.1	18.8
CCc1cnc(N2CCN(c3ncc(-c4ccc(-n5cnn([C@@H]6CCNC6)c5=O)c(F)c4)cc3C#N)CC2)nc1 [Example 34, (R)-2-(4-(5-ethylpyrimidin-2-yl)piperazin-1-yl)-5-(3-fluoro-4-(5-oxo-1-(pyrrolidin-3-yl)-1H-1,2,4-triazol-4(5H)-yl)phenyl)nicotinonitrile]	113.8	8.4	3.2	25.1
CCc1cnc(N2CCN(c3ncc(-c4ccc(-n5cnn(C(C)C)c5=O)c(F)c4)cc3C#N)CC2)nc1.Cl [Example 43, 2-(4-(5-ethylpyrimidin-2-yl)piperazin-1-yl)-5-(3-fluoro-4-(1-isopropyl-5-oxo-1H-1,2,4-triazol-4(5H)-yl)phenyl)nicotinonitrile hydrochloride]	130.9		3.8	25.2
CCN(CC)CCn1ncn(-c2ccc(-c3cnc(N4CCC(N(C)C(=O)OC(C)(C)C)CC4)c(C#N)c3)cc2F)c1=O [Example 61, tert-butyl 1-(3-cyano-5-(4-(1-(2-(diethylamino)ethyl)-5-oxo-1H-1,2,4-triazol-4(5H)-yl)-3-fluorophenyl)pyridin-2-yl)piperidin-4-yl(methyl)carbamate]				18.0
CCc1cnc(N2CCN(c3ncc(-c4ccc(-n5cnn(C(C)C)c5=O)c(F)c4)cc3C#N)CC2)nc1 [Example 44, 2-(4-(5-ethylpyrimidin-2-yl)piperazin-1-yl)-5-(3-fluoro-4-(1-isopropyl-5-oxo-1H-1,2,4-triazol-4(5H)-yl)phenyl)nicotinonitrile sulfonate]				27.0
CCN(CC)CCn1ncn(-c2ccc(-c3cnc(N4CCC(c5nc(C(C)C)no5)CC4)c(C#N)c3)cc2F)c1=O [Example 63, 5-(4-(1-(2-(diethylamino)ethyl)-5-oxo-1H-1,2,4-triazol-4(5H)-yl)-3-fluorophenyl)-2-(4-(3-isopropyl-1,2,4-oxadiazol-5-yl)piperidin-1-yl)nicotinonitrile]				27.7
CCCn1ncn(-c2ccc(-c3ccc(N4CCN(C(=O)OC(C)(C)C)CC4C(F)(F)F)nc3)cc2F)c1=O (stereo not shown) [Example 50, tert-butyl 4-(5-(3-fluoro-4-(5-oxo-1-propyl-1H-1,2,4-triazol-4(5H)-yl)phenyl)pyridin-2-yl)-3-(trifluoromethyl)piperazin-1-carboxylate]				15.6
CCc1cnc(N2CCN(c3ncc(-c4ccc(-n5cnn(CC(C)(C)C#N)c5=O)c(F)c4)cc3C#N)[C@@H](C)C2)nc1 [Example 25, (S)-5-(4-(1-(2-cyano-2-methylpropyl)-5-oxo-1H-1,2,4-triazol-4(5H)-yl)-3-fluorophenyl)-2-(4-(5-ethylpyrimidin-2-yl)-2-methylpiperazin-1-yl)nicotinonitrile]	116.0	2.6	3.3	
CCc1cnc(N2CCN(c3ncc(-c4ccc(-n5cnn(C)c5=O)c(F)c4)cc3C#N)[C@@H](C)C2)nc1 [Example 9, (S)-2-(4-(5-ethylpyrimidin-2-yl)-2-methylpiperazin-1-yl)-5-(3-fluoro-4-(1-methyl-5-oxo-1H-1,2,4-triazol-4(5H)-yl)phenyl)nicotinonitrile]	118.2	3	2.8	
CCc1cnc(N2CCN(c3ncc(-c4ccc(-n5cnn(CC(=O)OC)c5=O)c(F)c4)cc3C#N)[C@@H](C)C2)nc1 [Example 13, (S)-methyl 2-(4-(4-(5-cyano-6-(4-(5-ethylpyrimidin-2-yl)-2-methylpiperazin-1-yl)pyridin-3-yl)-2-fluorophenyl)-5-oxo-4,5-dihydro-1H-1,2,4-triazol-1-yl)acetate]	102.0	114	2.9	
CCc1cnc(N2CCN(c3ncc(-c4ccc(-n5cnn(C(C)C)c5=O)c(F)c4)cc3C#N)CC2)nc1 [Example 30, 2-(4-(5-ethylpyrimidin-2-yl)piperazin-1-yl)-5-(3-fluoro-4-(1-isopropyl-5-oxo-1H-1,2,4-triazol-4(5H)-yl)phenyl)nicotinonitrile]	130.9	1.5	3.8	
CC(C)c1nc(C2CCN(c3ncc(-c4ccc(-n5cnn(CC(N)=O)c5=O)cc4)cc3C#N)CC2)no1 [Example 72, 2-(4-(4-(5-cyano-6-(4-(5-isopropyl-1,2,4-oxadiazol-3-yl)piperidin-1-yl)pyridin-3-yl)phenyl)-5-oxo-4,5-dihydro-1H-1,2,4-triazol-1-yl)acetamide]				16.5
CCc1cnc(N2CCN(c3ncc(-c4ccc(-n5cnn(CCNS(C)(=O)=O)c5=O)c(F)c4)cc3C#N)[C@@H](C)C2)nc1 [Example 23, (S)—N-(2-(4-(4-(5-cyano-6-(4-(5-ethylpyrimidin-2-yl)-2-methylpiperazin-1-yl)pyridin-3-yl)-2-fluorophenyl)-5-oxo-4,5-dihydro-1H-1,2,4-triazol-1-yl)ethyl)methanesulfonamide]	111.7	7.9	3.4	
CC(C)n1ncn(-c2ccc(-c3cnc(N4CCC(N(C)C(=O)OC(C)(C)C)CC4)c(C#N)c3)cc2F)c1=O [Example 58, tert-butyl 1-(3-cyano-5-(3-fluoro-4-(1-isopropyl-5-oxo-1H-1,2,4-triazol-4(5H)-yl)phenyl)pyridin-2-yl)piperidin-4-yl(methyl)carbamate]	105.4	16	2.6	
COCn1ncn(-c2ccc(-c3cnc(N4CCN(c5noc(C(C)C)n5)CC4)c(C#N)c3)cc2)c1=O [Example 48, 2-(4-(5-isopropyl-1,2,4-oxadiazol-3-yl)piperazin-1-yl)-5-(4-(1-(methoxymethyl)-5-oxo-1H-1,2,4-triazol-4(5H)-yl)phenyl)nicotinonitrile]	109.1	16	3.0	
